Results taken from publication PMC12275099, “VX-445 (elexacaftor) inhibits chloride secretion across human bronchial epithelial cells by directly blocking KCa3.1 channels” (PNAS Nexus, 2025).
Several values for one entry are separate records, joined by “and”; a condition that tells them apart may be missing. Equal values may be shown once. Entries after “also recorded” stand apart in the source; their conditions may differ.

What was measured:
WT CFTR HBEs = assay: Ussing chamber Isc, DCEBIO-induced Cl- secretion; format: cell-based, human
Source text: (§1) Primary human bronchial epithelial cells (HBEs) were collected from unused or discarded samples from the Center for Organ Recovery and Education via the University of Pittsburgh Pulmonary, Allergy, Critical Care, and Sleep Medicine Lung Biobank and Repository. All experimental procedures involving the use of HBEs were approved by the institutional review board (IRB STUDY19090084) and the Committee for Oversight of Research and Clinical Training Involving Decedents (CORID number 451) at the University of Pittsburgh. At all times, authors were blind to the identity of HBE donors. HBEs were cultured using the Vertex method ([72]). Studies were carried out on WT CFTR HBEs from 11 ([13]) donors and homozygous F508del/F508del CFTR HBEs from five ([5]) separate donors. HBEs were plated on Costar Transwell permeable supports ([…], 6.5 mm insert, polyester membrane, Corning) and grown at an air–liquid interface for 5+ weeks in HBE differentiation medium containing 2% Ultroser-G. Basolateral media were replaced three times per week. For whole-cell patch-clamp studies, HBEs were maintained in BronchiaLife airway media (LifeLine Cell Technology, LS-1047) and plated onto poly-L-lysine-coated coverslips (see below).
(§2) Costar Transwell inserts were mounted in a modified Ussing chamber (P2300, Physiologic Instruments) and the monolayers continuously short-circuited (VCC MC8, Physiologic Instruments) by forcing the transepithelial voltage to 0 mV. Short-circuit current (Isc) measurements were taken in symmetric solutions, containing (in mM): 120 NaCl, 25 NaHCO3, 3.3 KH2PO4, 0.8 K2HPO4, 1.2 CaCl2, 1.2 MgCl2, and 10 glucose. The pH of the solution is 7.4 when gassed with 95% O2–5% CO2 at 37°C. Compounds were added cumulatively following the establishment of a new stable current response. Amiloride was added to the apical membrane, while all other compounds were added to both membranes due to their lipophilic nature. In all experiments, 10 µM amiloride was used to inhibit sodium absorption. Percent inhibition was calculated as the change in Isc (ΔIsc) between the forskolin or DCEBIO stable current level and the Isc following addition of the compound being assessed divided by the ΔIsc between the stable forskolin- or DCEBIO-induced Isc and the Isc following bumetanide addition.

[1] = test system: primary WT CFTR-expressing HBEs; assay: Ussing chamber Isc, forskolin-stimulated Cl- secretion; format: cell-based, human; conditions: for effect on the bumetanide-insensitive current: applied after forskolin and bumetanide, VX-445 10 µM, acetazolamide 1 µM
Source text: as §1, §2

KCa3.1 [2] = molecular target: T1, KCa3.1 (Homo sapiens, UniProt O15554); assay: Whole-cell patch-clamp on HEK cells heterologously expressing KCa3.1; format: cell-based; conditions: for effect on KCa3.1 current: 10 µM, data not shown
T1 construct: expressed in transfected cells
Procedure: (§3) Our Isc results are consistent with VX-445 inhibiting KCa3.1 in HBEs. To directly assess this possibility, we initially carried out whole-cell patch-clamp studies on undifferentiated HBEs. […] Upon application of 10 µM VX-445, a majority of this current was inhibited, averaging 87 ± 4% (n = 3, P < 0.005; Fig. 3B). A summary of the current–voltage (I–V) relationship—normalized to cell capacitance—is shown in Fig. 3C, which also includes the whole-cell I–V in the presence of Tram-34. […] To ensure isolation of KCa3.1 currents and to more fully characterize this VX-445-dependent inhibition of KCa3.1, we utilized HEK cells heterologously expressing KCa3.1 (HEK-KCa3.1). Initially, we confirmed our results from HBEs, using whole-cell recordings, as above. […] In seven experiments, this inhibition averaged 58 ± 7% (P < 0.005). […] It is well recognized that drugs are carried to their targets in the blood bound to albumin, which ranges from 3.4 to 5.4%. Thus, we determined whether VX-445 (10 µM) would inhibit KCa3.1 expressed in HEK cells in the presence of 3.4% albumin. In four experiments, VX-445 inhibited an average of 51 ± 17% of the whole-cell KCa3.1 current, which is not different from that observed in the absence of albumin. To confirm the direct effect of VX-445 on KCa3.1, we utilized the excised, inside-out patch-clamp technique. The patch was then exposed to DCEBIO (100 µM) to further activate the channels ([34–37])—analogous to our Isc studies in HBEs. […] In three experiments, VX-445 inhibited an average of 63 ± 6% of the KCa3.1 current. Based on these experiments, we determined the apparent inhibitory constant, Ki for VX-445. For these experiments, patches were excised into saturating Ca^2+ (3 µM) to ensure maximal KCa3.1 activation. These studies were carried out in the absence of DCEBIO to eliminate the possibility that the inhibition observed was due to competition for the DCEBIO-binding site.
(§4) HEK cells stably expressing KCa3.1 (IK1, SK4), KCa2.3 (SK3), and KCa2.2 (SK2) were generated and cultured as previously described by us ([37], [66–71]).
(§5) HEK cells expressing the channel of interest were plated onto poly-L-lysine-coated glass coverslips 1–2 days prior to patch-clamp analysis. Electrophysiological recordings in the excised, inside-out, and whole-cell patch-clamp configurations were performed as recently described ([14]). For excised patch-clamp recordings, the pipette solution contained (in mM): 140 K-gluconate, 5 KCl, 1 CaCl2, 1 MgCl2, and 10 HEPES. The pH was adjusted to 7.2 with KOH. The bath solution contained (in mM): 145 K-gluconate, 5 KCl, 1.3 MgCl2, 10 HEPES, and 1 EGTA. Sufficient CaCl2 was added to obtain the desired free Ca^2+ concentration at a pH of 7.2 (adjusted with KOH). When recording KCa3.1 channels, ATP (300 µM) was added to the bath to diminish channel rundown ([73]). All recordings were carried out at a voltage of −100 mV, referenced to the extracellular compartment, as is standard. The apparent Ki and Hill coefficient for each CFTR corrector on KCa3.1, KCa2.3, and KCa2.2 were determined during a continuous recording by step-wise addition of increasing concentrations of compound and fitting the resultant relative remaining current to a Hill equation (Prism v. 10.1.0). The zero current level was determined by the addition of a 0 Ca^2+ solution (zero-added Ca^2+ plus 1 mM EGTA) at the end of the experiment. In the case of KCa3.1, TRAM-34, a known inhibitor of KCa3.1 ([45]), was used to confirm expression of the channel. For whole-cell experiments, pipettes contained (in mM): 145 K-gluconate, 10 EGTA, 7.5 CaCl2, 2 MgCl2, 3 mM NaATP, and 10 HEPES. The bath solution contained (in mM): 140 K-gluconate, 5 KCl, 1.0 MgCl2, 10 HEPES, and 2 CaCl2. Current–voltage relationships were determined by stepping from a holding potential of −80 mV to +80 mV in 20 mV increments for 400 ms. […]

KCa3.1 [3] = molecular target: T1, KCa3.1; assay: Excised inside-out patch-clamp on HEK-KCa3.1; format: biochemical; conditions: TRAM-34 3 µM after DCEBIO and VX-445 10 µM
Procedure: as §3, §4, §5

[4] = molecular target: T2, endogenous KCa3.1 in WT CFTR-expressing HBEs (Homo sapiens, UniProt O15554); assay: Whole-cell patch-clamp on undifferentiated HBEs; format: cell-based; conditions: TRAM-34 subsequent to VX-445, Fig 3C single cells
T2 construct: endogenous in cells; host or cells: undifferentiated primary human bronchial epithelial cells (WT CFTR donors)
Procedure: as §3
Primary human bronchial epithelial cells (HBEs) were collected from unused or discarded samples from the Center for Organ Recovery and Education via the University of Pittsburgh Pulmonary, Allergy, Critical Care, and Sleep Medicine Lung Biobank and Repository. All experimental procedures involving the use of HBEs were approved by the institutional review board (IRB STUDY19090084) and the Committee for Oversight of Research and Clinical Training Involving Decedents (CORID number 451) at the University of Pittsburgh. At all times, authors were blind to the identity of HBE donors. HBEs were cultured using the Vertex method ([72]). Studies were carried out on WT CFTR HBEs from 11 ([13]) donors and homozygous F508del/F508del CFTR HBEs from five ([5]) separate donors. […]

[5] = test system: BKCa (KCa1.1, KCNMA1) channels; parameters: method as in PMID 38954478; conditions: primary HBEs and HEK cells heterologously expressing the channel; cited from earlier work

Clc1ccccc1C(c1ccccc1)(c1ccccc1)n1cccn1 [TRAM-34]
effect on DCEBIO-stimulated Isc (WT CFTR HBEs; TRAM-34 5 µM, DCEBIO 100 µM, no VX-445): inhibits the DCEBIO-stimulated Isc response
effect on DCEBIO-stimulated Isc following VX-445 (WT CFTR HBEs; TRAM-34 after DCEBIO and VX-445 10 µM): had little effect
effect on forskolin-stimulated Isc ([1]; TRAM-34 5 µM, no VX-445): inhibits a portion of the current
effect on forskolin-stimulated Isc following VX-445 ([1]; TRAM-34 after VX-445 10 µM): failed to inhibit additional current
effect on the bumetanide-insensitive current [1]: failed to decrease
effect on current remaining after VX-445 (KCa3.1 [2]; TRAM-34 1 µM after VX-445 10 µM): inhibited the remainder of the current
effect on current remaining after VX-445 (KCa3.1 [3]): inhibited the remainder of the current
whole-cell current normalized to cell capacitance ([4]; -40 mV): 0.875 and 0.576
whole-cell current normalized to cell capacitance ([4]; -60 mV): 0.344 and 0.305
whole-cell current normalized to cell capacitance ([4]; -80 mV): 0.0478 and 0.0385

CC1(C)C[C@@H]2CCCNc3cccc(n3)S(=O)(=O)NC(=O)c3ccc(-n4ccc(OCCC5C6(CC6)C56CC6)n4)nc3N1C2 [VX-121, vanzacaftor]
inhibition at 10 µM (KCa3.1 [2]; HEK293, VX-121 10 µM, three experiments, read-out: inhibition of whole-cell KCa3.1 current): 85 ± 8%
effect on BKCa [5]: act as direct potentiators

CC(C)(CO)c1cc2cc(NC(=O)C3(c4ccc5c(c4)OC(F)(F)O5)CC3)c(F)cc2n1C[C@@H](O)CO [VX-661, tezacaftor]
effect on forskolin-mediated Cl- secretion ([1]; VX-661 10 µM): had no effect
effect on KCa3.1 current (KCa3.1 [2]): had no effect; also recorded: failed to inhibit
effect on BKCa [5]: had no effect

CC(C)(C)c1cc(C(C)(C)C)c(NC(=O)c2c[nH]c3ccccc3c2=O)cc1O [VX-770, ivacaftor]
effect on BKCa [5]: had no effect

Cc1ccc(NC(=O)C2(c3ccc4c(c3)OC(F)(F)O4)CC2)nc1-c1cccc(C(=O)O)c1 [VX-809]
effect on KCa3.1 current (KCa3.1 [2]): failed to inhibit

CC(=O)Nc1nnc(S(N)(=O)=O)s1 [acetazolamide]
effect on the bumetanide-insensitive current [1]: partially inhibited the remaining current

CCCCNc1cc(C(=O)O)cc(S(N)(=O)=O)c1Oc1ccccc1 [bumetanide]
Isc in the presence of bumetanide ([1]; Fig 1F, single filters, after forskolin): 21 and 18 and 15 and 17 and 14 and 19 and 23 and 20

C=C[C@@]1(C)CC(=O)[C@]2(O)[C@@]3(C)[C@@H](O)CCC(C)(C)[C@@H]3[C@H](O)[C@H](OC(C)=O)[C@@]2(C)O1 [forskolin]
Isc in the presence of forskolin ([1]; Fig 1F, single filters): 31 and 30 and 24 and 28 and 26 and 34 and 27 and 32
Isc in the presence of forskolin ([1]; Fig 2B, single filters): 17 and 18 and 23 and 24 and 19 and 21

CC(C)(O)[C@H]1O[C@H]2CC[C@@]3(C)[C@@](O)(CC[C@H]4Cc5c([nH]c6ccccc56)[C@@]43C)C2=CC1=O [paxilline]
Isc in the presence of paxilline ([1]; Fig 2B, single filters, paxilline 10 µM after forskolin and VX-445): 12 and 11 and 15 and 20 and 21 and 19 and 14
effect on Isc subsequent to VX-445-induced decrease ([1]; paxilline 10 µM after forskolin and VX-445 10 µM): had no effect
